Measured values as given in PMC10629583, “Specific inhibition of an anticancer target, polo-like kinase 1, by allosterically dismantling its mechanism of substrate recognition” (Proceedings of the National Academy of Sciences of the …, 2023).

Columns and labels:
Plk3 PBD (PBD3) = biological target: T1, Plk3 PBD (PBD3) (Homo sapiens, UniProt Q9H4B4); assay: FP-based inhibition assay, PBD3; format: binding; conditions: bacterially expressed purified PBD, FITC-ligand 15 nM, PBD at EC85
T1 construct: MBP-PBD3-His (335–646) (pKM3359) and its A612F (pKM7981); His (C); made in house; host or cells: bacteria (E. coli)
T1 sequence (Q9H4B4 335-646): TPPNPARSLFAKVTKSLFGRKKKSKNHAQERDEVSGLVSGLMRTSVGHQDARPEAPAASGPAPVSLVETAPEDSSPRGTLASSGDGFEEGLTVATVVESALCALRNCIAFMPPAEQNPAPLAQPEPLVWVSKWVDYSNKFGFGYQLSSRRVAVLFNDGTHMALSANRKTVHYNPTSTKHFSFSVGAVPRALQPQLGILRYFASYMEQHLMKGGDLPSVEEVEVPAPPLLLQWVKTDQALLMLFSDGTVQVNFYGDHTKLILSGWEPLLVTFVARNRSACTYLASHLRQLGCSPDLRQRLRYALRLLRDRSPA
Method: (§1) FP assays were carried out essentially as described previously ([35], [36]). FITC-conjugated ligands (15 nM) were mixed with PBDs at their EC85 concentrations. All the samples were analyzed approximately 30 min after reaction in a 384-well format using the SpectraMax Paradigm multimode microplate detection platform (Molecular Devices). Data were analyzed after carrying out at least three independent experiments using GraphPad Prism software version 8.

PBD2 S652F mutant = biological target: T2, PBD2 S652F mutant (Homo sapiens, UniProt Q9NYY3, S652F); assay: FP-based inhibition assay, PBD2 S652F; format: binding
T2 construct: Purification of PBD2-His (355–685) (pKM3358) and its S652F mutant (pKM7980); His (C); made in house; host or cells: bacteria (E. coli)
Method: as §1
Fig. S3. Sequence alignment showing unique PBD2 S652 and PBD3 A612 residues and FP-based Allopole-A inhibition assays carried out with PBD2 S652F and PBD A612F mutants. (A) Human PBD1 (Uniprot ID: P53350), PBD2 (Uniprot ID: Q9NYY3), and PBD3 (15niport ID:Q9H4B4) sequences were aligned using Clustal Omega. The polo-box cap and L1 loop regions were adjusted based on the structural superposition of PBD1 (PDB ID: 3HIK), PBD2 (PDB_ID: 4RS6), and the AlphaFold model of PBD3 (https://alphafold.ebi.ac.uk). […]
with PBD2 and MBP-PBD3 are working properly under our conditions. […] The Kd values for the indicated proteins were determined after extrapolating them from the binding curves as the […]
concentration at which 50% of FITC-conjugated ligands (FITC-GPMQTSpTPKNG for PBD2 and FITC-GPLATSpTPKNG for PBD3) (5) are protein-bound. The EC85 values indicate the effective concentration of 85% of the maximal concentration calculated for each protein. […]

[1] = tested on: Flag-Plk1 interactions with p-PBIP1, Bub1, BubR1, Cdc25C; assay: Coimmunoprecipitation, HeLa cells expressing Flag-Plk1; format: cell-based; conditions: 20 μM for 2 h, nocodazole + okadaic acid
Method: For coimmunoprecipitation analyses shown in Figs. 1C and 4F, HeLa cells stably expressing PCMV-Flag-Plk1 WT (pKM3863) (Fig. 1C) and its respective F559D mutant (pKM7979) (Fig. 4F) were generated using a lentiviral expression system. Prior to harvest, the cells were treated with 600 nM of nocodazole and 300 nM of okadaic acid (OA) for 16 h and 1.5 h, respectively, to enrich the level of phosphorylated proteins and additionally treated with either control DMSO or 20 μM of Allopole for 2 h. Immunoprecipitation was carried out essentially as described previously ([49]) in TBSN buffer [20 mM Tris–Cl (pH 8.0), 150 mM NaCl, 0.5% NP-40, 5 mM EGTA, 2 mM MgCl2, 1.5 mM EDTA, 2 mM DTT, 20 mM p-nitrophenyl phosphate (PNPP), and protease inhibitor cocktail (Roche)] using anti-Flag antibody (Sigma-Aldrich). Immunoprecipitates were separated by sodium dodecyl sulfate–polyacrylamide gel electrophoresis (SDS-PAGE) and then immunoblotted according to standard procedures using an enhanced chemiluminescence detection system (Thermo Fisher Scientific). The antibodies that were used to detect specific indicated proteins in Fig. 1C are listed in SI Appendix, Table S6.

[2] = tested on: mGFP-Plk1 WT at centrosomes, U2OS cells; assay: Confocal quantification of Pendo-mGFP-Plk1 WT in U2OS cells (siPlk1); format: cell-based; conditions: U2OS siPlk1, 8 μM
Method: To corroborate the importance of the F559 residue for Allopole-A binding, U2OS cells expressing endogenous promoter (i.e., Pendo)-controlled mGFP-Plk1 WT or F559D mutant were depleted of endogenous Plk1 by RNAi for 48 h (SI Appendix, Fig. S4C), treated with control DMSO or 8 μM of Allopole for 2 or 16 h, and fixed (SI Appendix, Fig. S4D). Afterward, the level of mGFP fluorescence was quantified using confocal microscopy (Fig. 4 C and D). As expected from the results shown in Fig. 1 C and D, Allopole delocalized mGFP-Plk1 WT from centrosomes within 2 h after treatment, and this effect was sustained for up to 16 h. […] This could be attributable to the fact that unlike PBIP1, which binds to PBD1 through the self-priming and binding mechanism ([49]), Bub1, BubR1, and likely Cdc25C require Cdc2-dependent priming phosphorylation to interact with PBD1 ([42]–[44]). […]
Confocal images of unsaturated fluorescence signals were acquired under the same laser intensity at the 12-bit resolution. Fluorescence intensities for identifiable centrosome and kinetochore signals were quantified after the maximum-intensity projection of z-stacks using the Zeiss ZEN v2.1 software (Carl Zeiss Microscopy, LLC). Data were quantified from three independent experiments.

T2 sequence (Q9NYY3 355-685 S652F): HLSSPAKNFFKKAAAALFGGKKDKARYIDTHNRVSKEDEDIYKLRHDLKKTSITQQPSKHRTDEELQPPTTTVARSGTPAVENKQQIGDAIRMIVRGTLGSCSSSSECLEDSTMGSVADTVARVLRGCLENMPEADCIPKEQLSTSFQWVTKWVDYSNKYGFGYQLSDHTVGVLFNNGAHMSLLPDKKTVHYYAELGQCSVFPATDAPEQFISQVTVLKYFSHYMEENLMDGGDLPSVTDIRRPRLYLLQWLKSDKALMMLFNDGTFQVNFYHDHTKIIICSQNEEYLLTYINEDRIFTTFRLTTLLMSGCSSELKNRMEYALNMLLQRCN

Structure (SMILES): O=c1c2sc(Cl)cc2n2c(=S)[nH]nc2n1CC1CC1 [Allopole-A]
- PBD3 IC50 ± SD (Plk3 PBD (PBD3)): N. S.
- Inhibition in FP assay (in words) (PBD2 S652F mutant): not inhibitable

Structure (SMILES): Cn1cnc([N+](=O)[O-])c1Sc1nnc2n(CC3CC3)c(=O)c3sc(Cl)cc3n12 [Allopole]
- Phosphoproteins coprecipitating with Flag-Plk1 (in words) [1]: greatly diminished the amounts of these proteins coprecipitating with Plk1
- Time to delocalization of mGFP-Plk1 WT from centrosomes [2]: ≤ 2 h
